According to patent US20110165113A1, “POLYMER CONJUGATES OF V681-LIKE PEPTIDES” (Nektar Therapeutics, priority 2008, published 2011):
Square brackets hold non-standard residues; d marks the D form. Peptide text beside a SMILES is read from it.

Assay: Pharmacokinetics after a single IV dose in rats
Settings: male, Sprague-Dawley, rat, in vivo, equivalent protein mass of 1.0 mg/kg
Text: The weight range of the animals was 311-346 grams. All animals were food fasted overnight. […] The predose sample was collected from the JVC.
Following the last collection point, the animals were euthanized.

CC[C@H](C)[C@H](NC(=O)[C@H](C)NC(=O)[C@H](CCCCN)NC(=O)[C@H](CC(C)C)NC(=O)[C@H](C)NC(=O)[C@@H](NC(=O)[C@H](Cc1c[nH]cn1)NC(=O)[C@H](CC(C)C)NC(=O)[C@@H](NC(=O)[C@@H](NC(=O)[C@H](CCCCN)NC(=O)[C@@H](C)NC(=O)[C@H](C)NC(=O)[C@H](CO)NC(=O)[C@H](CCCCN)NC(=O)[C@H](Cc1ccccc1)NC(=O)[C@@H](NC(=O)[C@H](CCCCN)NC(=O)[C@H](CC(C)C)NC(=O)[C@H](Cc1ccccc1)NC(=O)[C@H](CO)NC(=O)[C@H](CCCCN)NC(=O)[C@H](Cc1c[nH]c2ccccc12)NC(=O)[C@H](CCCCN)NC(C)=O)[C@@H](C)O)[C@@H](C)O)C(C)C)[C@@H](C)O)C(=O)N[C@@H](CO)C(=O)N[C@@H](CO)C(N)=O [V681 (V13AD)] (Ac-KWKSFLKTFKSA[dA]KTVLHTALKAISS-NH2)
AUC(0-inf): 7210 ± 1430 ng·h/mL
Cmax: 16500 ± 9670 ng/mL
MRT: 19.8 ± 4.8 min
clearance: 2.37 mL/min/kg
half-life: 36.6 ± 23.4 min
Vd (read-out: Vss): 0.0477 ± 0.018 L/kg
